Laboratory results: ChEMBL document CHEMBL1201862, “PubChem BioAssay data set” (2004)
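96-well plates; 48 h exposure; 5 concentrations. Endpoints by linear interpolation between flanking doses. Not reached: highest tested concentration assigned. GI50: concentration for 50% inhibition of growth.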 Calls of active or inactive are those of the source. Cut-off read from the data, not from the text of the source: active = GI50 up to about 1.1 µM and inactive = higher.

What was measured:
Assay in all cases: NCI tumour cell line growth inhibition, 48 h
CAKI-1 = system: CAKI-1
ACHN = system: ACHN
RXF 393 = system: RXF 393
NCI-H226 = system: NCI-H226
COLO 205 = system: COLO 205
RPMI-8226 = system: RPMI-8226
OVCAR-3 = system: OVCAR-3
SK-MEL-28 = system: SK-MEL-28
OVCAR-4 = system: OVCAR-4
HOP-92 = system: HOP-92
Malme-3M = system: Malme-3M
M14 = system: M14
NCI-H460 = system: NCI-H460
LOX IMVI = system: LOX IMVI
NCI-H23 = system: NCI-H23
SNB-19 = system: SNB-19

Measured: GI50

O=c1nc(NC2CCCCO2)ccn1CCO (stereo unspecified)
inactive: CAKI-1 > 100 µM | ACHN > 100 µM | RXF 393 > 100 µM | NCI-H226 > 100 µM | COLO 205 > 100 µM | RPMI-8226 > 100 µM | OVCAR-3 > 100 µM | SK-MEL-28 > 100 µM | OVCAR-4 > 100 µM | HOP-92 > 100 µM | Malme-3M > 100 µM | M14 > 100 µM | NCI-H460 > 100 µM | LOX IMVI > 100 µM

CCN(CC)CCC(=O)N1CCc2c([nH]c3ccccc23)C1c1cccnc1 (stereo unspecified)
inactive: CAKI-1 > 100 µM | ACHN > 100 µM | RPMI-8226 > 100 µM | OVCAR-3 > 100 µM | SK-MEL-28 > 100 µM | OVCAR-4 > 100 µM | HOP-92 68.9 µM | NCI-H23 > 100 µM | M14 > 100 µM | NCI-H460 > 100 µM | SNB-19 > 100 µM | LOX IMVI > 100 µM

CN(C)c1ccc(C2CC(=O)C(C#N)=C(c3ccccc3)NN2C)cc1 (stereo unspecified)
inactive: CAKI-1 9.82 µM | ACHN 11.4 µM | RXF 393 25.2 µM | NCI-H226 37.4 µM | RPMI-8226 13.9 µM | SK-MEL-28 > 100 µM | OVCAR-4 31.6 µM | HOP-92 21.1 µM | Malme-3M 5.65 µM | NCI-H23 32.4 µM | M14 5.04 µM | NCI-H460 5.52 µM | SNB-19 12.1 µM | LOX IMVI 4.93 µM

CCn1c(C)nn2c(=O)c3ccccc3nc2c1=O
inactive: CAKI-1 > 100 µM | ACHN > 100 µM | COLO 205 > 100 µM | RPMI-8226 > 100 µM | OVCAR-3 > 100 µM | SK-MEL-28 > 100 µM | OVCAR-4 > 100 µM | HOP-92 59.7 µM | Malme-3M > 100 µM | NCI-H23 > 100 µM | M14 > 100 µM | NCI-H460 > 100 µM | LOX IMVI > 100 µM

N#Cc1ccccc1NC(=O)/C(=N\Nc1ccc([N+](=O)[O-])cc1)C1C(=O)NC(=O)NC1=O
inactive: CAKI-1 31.4 µM | ACHN > 100 µM | RXF 393 > 100 µM | COLO 205 > 100 µM | RPMI-8226 > 100 µM | OVCAR-3 > 100 µM | SK-MEL-28 > 100 µM | OVCAR-4 > 100 µM | HOP-92 3.69 µM | Malme-3M > 100 µM | NCI-H23 > 100 µM | M14 > 100 µM | NCI-H460 > 100 µM | SNB-19 > 100 µM | LOX IMVI > 100 µM

COc1ccc(/C=C(\C(C)=O)C(=O)Nc2ccccc2)cc1
inactive: CAKI-1 > 100 µM | ACHN > 100 µM | RXF 393 > 100 µM | NCI-H226 > 100 µM | RPMI-8226 > 100 µM | OVCAR-3 > 100 µM | SK-MEL-28 > 100 µM | OVCAR-4 > 100 µM | HOP-92 > 100 µM | Malme-3M > 100 µM | NCI-H23 > 100 µM | M14 > 100 µM | NCI-H460 > 100 µM | SNB-19 > 100 µM | LOX IMVI > 100 µM

CC1=NN(c2ccccc2)C(=O)C1/N=N/c1ccc(Br)cc1C (stereo unspecified)
inactive: CAKI-1 46.2 µM | ACHN 37.3 µM | RXF 393 50.5 µM | NCI-H226 35.9 µM | COLO 205 > 100 µM | RPMI-8226 > 100 µM | OVCAR-3 > 100 µM | SK-MEL-28 > 100 µM | OVCAR-4 62.7 µM | HOP-92 38.6 µM | Malme-3M > 100 µM | NCI-H23 38 µM | M14 90.4 µM | NCI-H460 > 100 µM | SNB-19 85.9 µM

CC(C)c1ccc(O)c(Cc2cc(C(C)C)cc(Cc3cc(C(C)C)ccc3O)c2O)c1
inactive: CAKI-1 1.53 µM | ACHN 3.56 µM | NCI-H226 1.54 µM | COLO 205 3.32 µM | RPMI-8226 2.08 µM | OVCAR-3 1.65 µM | SK-MEL-28 1.73 µM | OVCAR-4 1.39 µM | HOP-92 1.79 µM | Malme-3M 1.5 µM | NCI-H23 1.7 µM | M14 1.66 µM | NCI-H460 1.83 µM | SNB-19 1.65 µM

COc1ccc(NC(=O)C(=O)c2c(O)c3ccc(O)cc3oc2=O)c([N+](=O)[O-])c1
inactive: CAKI-1 > 100 µM | ACHN > 100 µM | RXF 393 > 100 µM | NCI-H226 > 100 µM | COLO 205 > 100 µM | OVCAR-3 > 100 µM | SK-MEL-28 > 100 µM | OVCAR-4 > 100 µM | HOP-92 > 100 µM | Malme-3M > 100 µM | NCI-H23 > 100 µM | M14 > 100 µM | NCI-H460 > 100 µM | SNB-19 > 100 µM | LOX IMVI > 100 µM

CC1(C(=O)Nc2ccc3cc4ccccc4cc3c2)CC2(C)CC(C)(C1)C(O)NC2=O (stereo unspecified)
inactive: CAKI-1 > 100 µM | ACHN 36.7 µM | RXF 393 > 100 µM | NCI-H226 53.1 µM | COLO 205 41.6 µM | RPMI-8226 61.1 µM | OVCAR-3 70 µM | SK-MEL-28 > 100 µM | OVCAR-4 > 100 µM | HOP-92 59.3 µM | Malme-3M 57.3 µM | NCI-H23 > 100 µM | M14 > 100 µM | NCI-H460 56 µM | LOX IMVI 62.4 µM

COC(=O)c1ccccc1N(C(=O)c1ccccc1)c1ccccc1C
inactive: CAKI-1 34.4 µM | ACHN 53.6 µM | RXF 393 30.7 µM | NCI-H226 74.3 µM | COLO 205 26 µM | OVCAR-3 34.6 µM | SK-MEL-28 > 100 µM | OVCAR-4 44.2 µM | Malme-3M 36.3 µM | NCI-H23 32.1 µM | M14 24 µM | NCI-H460 29.8 µM | SNB-19 > 100 µM | LOX IMVI 48.1 µM

O=[N+]([O-])c1ccc(Cl)c(C2CC(c3cccc4ccccc34)=Nc3ccccc3S2)c1 (stereo unspecified)
inactive: CAKI-1 21.9 µM | ACHN 34.1 µM | RXF 393 8.91 µM | NCI-H226 27.6 µM | COLO 205 61.2 µM | RPMI-8226 2.6 µM | OVCAR-3 16.3 µM | SK-MEL-28 27.3 µM | OVCAR-4 20.1 µM | HOP-92 2.64 µM | Malme-3M > 54.8 µM | NCI-H23 11.4 µM | M14 20.6 µM | NCI-H460 26.5 µM | SNB-19 44.4 µM | LOX IMVI 20 µM

COC(=O)CC(C(C(=O)OC)C(=O)OC)N1C(=O)OCC1c1ccccc1 (stereo unspecified)
inactive: CAKI-1 > 100 µM | ACHN > 100 µM | RXF 393 > 100 µM | NCI-H226 > 100 µM | COLO 205 > 100 µM | RPMI-8226 58.6 µM | OVCAR-3 > 100 µM | SK-MEL-28 > 100 µM | OVCAR-4 > 100 µM | HOP-92 > 100 µM | Malme-3M > 100 µM | NCI-H23 > 100 µM | M14 > 100 µM | NCI-H460 > 100 µM | SNB-19 > 100 µM | LOX IMVI > 100 µM

COc1ccc(C/C(=N/O)C(=O)NCCc2cc(Br)c(OCCCN(C)C)c(Br)c2)cc1Br [APLYSAMINE 2]
inactive: CAKI-1 25.6 µM | ACHN 15.6 µM | RXF 393 21.6 µM | COLO 205 18.8 µM | OVCAR-3 21.6 µM | SK-MEL-28 17.7 µM | OVCAR-4 17 µM | Malme-3M 27.6 µM | NCI-H23 > 10 µM | M14 17.7 µM | NCI-H460 17.3 µM | SNB-19 16.3 µM | LOX IMVI 16.2 µM
